Experimental data from the supplement of paper PMC4862054.

Test system: SK-BR-3
Assay: normalised response (% of control), CellTiter-Glo; higher = more viable cells (100 = DMSO, 0 = benzethonium chloride kill control)
Conditions: incubation time: 72 h
How it was run: (§1)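 Breast cancer cell lines (20 µl suspension) were seeded into 384-well plates holding compound at 5 concentrations in 10-fold steps over a compound-specific 10,000-fold range, then incubated 72 h. CellTox Green fluorescence (485/520 nm) was read first, then CellTiter-Glo luminescence after 10 min at room temperature. Each plate was normalised to 0.1 % DMSO (100) and a positive kill control (0). Each value is the normalised signal at a single concentration of the series.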

Structure (SMILES)	normalised response [%]
CCn1c(-c2nonc2N)nc2cnc(Oc3cccc(NC(=O)c4ccc(OCCN5CCOCC5)cc4)c3)cc21 (1 nM)	102
CCn1c(-c2nonc2N)nc2cnc(Oc3cccc(NC(=O)c4ccc(OCCN5CCOCC5)cc4)c3)cc21 (10 nM)	117
N#Cc1ccc(COC[C@H]2O[C@@H](n3c(NCc4ccc(Cl)c(Cl)c4)nc4c(N)ncnc43)[C@H](O)[C@@H]2O)cc1 (10 nM)	132
COc1cc(O)c2c(c1)/C=C/C[C@H](O)[C@H](O)C(=O)/C=C\C[C@H](C)OC2=O [(5Z)-7-Oxozeaenol] (1 nM)	105
COc1cc(O)c2c(c1)/C=C/C[C@H](O)[C@H](O)C(=O)/C=C\C[C@H](C)OC2=O [(5Z)-7-Oxozeaenol] (10 nM)	107
COc1cc(OC2CCN(C)CC2)ccc1Nc1ncc2c(n1)n(C1CCCC1)c(=O)n2C [AZ 3146] (10 nM)	95.4
CNC(=O)c1cccc(-c2ccc3c(N4CCOC[C@@H]4C)nc(N4CCOC[C@@H]4C)nc3n2)c1 [AZD2014] (1 nM)	115
CNC(=O)c1cccc(-c2ccc3c(N4CCOC[C@@H]4C)nc(N4CCOC[C@@H]4C)nc3n2)c1 [AZD2014] (10 nM)	99
CN(C)c1nc(N(C)C)nc(N(C)C)n1 [Altretamine] (10 nM)	113
O=C(/C=C/c1cccc(S(=O)(=O)Nc2ccccc2)c1)NO [Belinostat] (10 nM)	68.9
Nc1cc(C(F)(F)F)c(-c2cc(N3CCOCC3)nc(N3CCOCC3)n2)cn1 [Buparlisib] (1 nM)	101
Nc1cc(C(F)(F)F)c(-c2cc(N3CCOCC3)nc(N3CCOCC3)n2)cn1 [Buparlisib] (10 nM)	110
O=P1(N(CCCl)CCCl)NCCCO1 (centres undefined) [Cyclophosphamide] (40 nM)	91
CNC(=O)c1ccc(N2C(=S)N(c3ccc(C#N)c(C(F)(F)F)c3)C(=O)C2(C)C)cc1F [Enzalutamide] (1 nM)	108
CNC(=O)c1ccc(N2C(=S)N(c3ccc(C#N)c(C(F)(F)F)c3)C(=O)C2(C)C)cc1F [Enzalutamide] (10 nM)	98

Test system: Hs578T
Assay: as above
Conditions: incubation time: 72 h
How it was run: as §1

Structure (SMILES)	normalised response [%]
CCn1c(-c2nonc2N)nc2cnc(Oc3cccc(NC(=O)c4ccc(OCCN5CCOCC5)cc4)c3)cc21 (1 nM)	99.5
CCn1c(-c2nonc2N)nc2cnc(Oc3cccc(NC(=O)c4ccc(OCCN5CCOCC5)cc4)c3)cc21 (10 nM)	104
N#Cc1ccc(COC[C@H]2O[C@@H](n3c(NCc4ccc(Cl)c(Cl)c4)nc4c(N)ncnc43)[C@H](O)[C@@H]2O)cc1 (10 nM)	101
COc1cc(O)c2c(c1)/C=C/C[C@H](O)[C@H](O)C(=O)/C=C\C[C@H](C)OC2=O [(5Z)-7-Oxozeaenol] (1 nM)	99.9
COc1cc(O)c2c(c1)/C=C/C[C@H](O)[C@H](O)C(=O)/C=C\C[C@H](C)OC2=O [(5Z)-7-Oxozeaenol] (10 nM)	104
COc1cc(OC2CCN(C)CC2)ccc1Nc1ncc2c(n1)n(C1CCCC1)c(=O)n2C [AZ 3146] (10 nM)	93
CNC(=O)c1cccc(-c2ccc3c(N4CCOC[C@@H]4C)nc(N4CCOC[C@@H]4C)nc3n2)c1 [AZD2014] (1 nM)	101
CNC(=O)c1cccc(-c2ccc3c(N4CCOC[C@@H]4C)nc(N4CCOC[C@@H]4C)nc3n2)c1 [AZD2014] (10 nM)	104
CN(C)c1nc(N(C)C)nc(N(C)C)n1 [Altretamine] (10 nM)	110
O=C(/C=C/c1cccc(S(=O)(=O)Nc2ccccc2)c1)NO [Belinostat] (10 nM)	94.3
Nc1cc(C(F)(F)F)c(-c2cc(N3CCOCC3)nc(N3CCOCC3)n2)cn1 [Buparlisib] (1 nM)	97.3
Nc1cc(C(F)(F)F)c(-c2cc(N3CCOCC3)nc(N3CCOCC3)n2)cn1 [Buparlisib] (10 nM)	98.4
O=P1(N(CCCl)CCCl)NCCCO1 (centres undefined) [Cyclophosphamide] (40 nM)	106
CNC(=O)c1ccc(N2C(=S)N(c3ccc(C#N)c(C(F)(F)F)c3)C(=O)C2(C)C)cc1F [Enzalutamide] (1 nM)	103
CNC(=O)c1ccc(N2C(=S)N(c3ccc(C#N)c(C(F)(F)F)c3)C(=O)C2(C)C)cc1F [Enzalutamide] (10 nM)	101
C=C1C[C@@H]2[C@H](CC[C@]3(C)C(=O)CC[C@@H]23)[C@@]2(C)C=CC(=O)C=C12 [Exemestane] (10 nM)	99.7
Cc1cc(Nc2cc(CN3CCOCC3)c3nc(C)c(Cc4ccc(Cl)cc4F)n3n2)n[nH]1 [Gandotinib] (10 nM)	99.5
O=C(Nc1ccncc1)C(=O)c1cn(Cc2ccc(Cl)cc2)c2ccccc12 [Indibulin] (10 nM)	104
Cc1ccc(NC(=O)c2ccc(CN3CCN(C)CC3)cc2)cc1Nc1nc(-c2cccnc2)cs1 [Masitinib] (10 nM)	98.8
Cc1[nH]c2ccccc2c1CCNCc1ccc(/C=C/C(=O)NO)cc1 [Panobinostat] (1 nM)	98.7
COCC1(CO)C(=O)C2CCN1CC2 (centres undefined) [Prima-1 Met] (10 nM)	103

Test system: MFM-223
Assay: as above
Conditions: incubation time: 72 h
How it was run: as §1

Structure (SMILES)	normalised response [%]
CCn1c(-c2nonc2N)nc2cnc(Oc3cccc(NC(=O)c4ccc(OCCN5CCOCC5)cc4)c3)cc21 (1 nM)	96.8
CCn1c(-c2nonc2N)nc2cnc(Oc3cccc(NC(=O)c4ccc(OCCN5CCOCC5)cc4)c3)cc21 (10 nM)	106
N#Cc1ccc(COC[C@H]2O[C@@H](n3c(NCc4ccc(Cl)c(Cl)c4)nc4c(N)ncnc43)[C@H](O)[C@@H]2O)cc1 (10 nM)	113
COc1cc(O)c2c(c1)/C=C/C[C@H](O)[C@H](O)C(=O)/C=C\C[C@H](C)OC2=O [(5Z)-7-Oxozeaenol] (1 nM)	108
COc1cc(O)c2c(c1)/C=C/C[C@H](O)[C@H](O)C(=O)/C=C\C[C@H](C)OC2=O [(5Z)-7-Oxozeaenol] (10 nM)	107
COc1cc(OC2CCN(C)CC2)ccc1Nc1ncc2c(n1)n(C1CCCC1)c(=O)n2C [AZ 3146] (10 nM)	102
CNC(=O)c1cccc(-c2ccc3c(N4CCOC[C@@H]4C)nc(N4CCOC[C@@H]4C)nc3n2)c1 [AZD2014] (1 nM)	106
CNC(=O)c1cccc(-c2ccc3c(N4CCOC[C@@H]4C)nc(N4CCOC[C@@H]4C)nc3n2)c1 [AZD2014] (10 nM)	106
CN(C)c1nc(N(C)C)nc(N(C)C)n1 [Altretamine] (10 nM)	109
O=C(/C=C/c1cccc(S(=O)(=O)Nc2ccccc2)c1)NO [Belinostat] (10 nM)	88.5
Nc1cc(C(F)(F)F)c(-c2cc(N3CCOCC3)nc(N3CCOCC3)n2)cn1 [Buparlisib] (1 nM)	97.1
Nc1cc(C(F)(F)F)c(-c2cc(N3CCOCC3)nc(N3CCOCC3)n2)cn1 [Buparlisib] (10 nM)	97.3
O=P1(N(CCCl)CCCl)NCCCO1 (centres undefined) [Cyclophosphamide] (40 nM)	100
